{"source": "patent US20130040882A1", "about": "“USE OF FIBROBLAST GROWTH FACTOR FRAGMENTS” (NOVARTIS AG, priority 2003, published 2013)", "test": "Salmon calcitonin/PTS893 monkey study: in vivo examinations (mortality, food consumption, clinical observations, body weight)", "design": "species or system cynomolgus monkeys (Macaca fascicularis)", "details": "males", "description": "Solvent was used as vehicle for the control group.\nThe animals used in this analysis were cynomolgus monkeys (Macaca fascicularis), supplied by Centre de Recherches Primatologiques, Port Louis, Mauritius. Two animals were used per group and sex. […] Animals were examined daily for mortality, food consumption and clinical observations. Body weight was recorded once per week.\nIn vivo examinations. No significant histopathological changes were observed.", "note": "Where “and” joins values, the source holds several entries; their conditions need not be identical. Identical values can stand only once."}
{"substance": "Leu8, Asp10, Lysll, A1a16, G1n18, Thr33, A1a34 human PTH 1-34 [PTS893, Leu8, Asp10, Lysll, A1a16, G1n18, Thr33, A1a34 human PTH 1-34 [hPTH(1-34)]]", "values": [{"measurement": "Food Consumption, Avg., Both animals", "setting": "average of both animals of the group", "result": 89.6}, {"measurement": "Food Consumption, Avg.", "setting": "average per individual animal", "result": "87.5 and 91.7"}, {"measurement": "Food Consumption, Day 1", "setting": "day 1 of SC dosing, individual animals", "result": 100}, {"measurement": "Food Consumption, Day 2", "setting": "day 2 of SC dosing, individual animals", "result": 100}, {"measurement": "Food Consumption, Day 3", "setting": "day 3 of SC dosing, individual animals", "result": 100}, {"measurement": "Food Consumption, Day 4", "setting": "day 4 of SC dosing, individual animals", "result": 100}, {"measurement": "Food Consumption, Day 5", "setting": "day 5 of SC dosing, individual animals", "result": 100}, {"measurement": "Food Consumption, Day 6", "setting": "day 6 of SC dosing, individual animals", "result": 100}, {"measurement": "Food Consumption, Day 7", "setting": "day 7 of SC dosing, individual animals", "result": 100}, {"measurement": "Food Consumption, Day 8", "setting": "day 8 of SC dosing, individual animals", "result": 100}, {"measurement": "Food Consumption, Day 9", "setting": "day 9 of SC dosing, individual animals", "result": 100}, {"measurement": "Food Consumption, Day 10", "setting": "day 10 of SC dosing, individual animals", "result": 100}, {"measurement": "Food Consumption, Day 11", "setting": "day 11 of SC dosing, individual animals", "result": 100}, {"measurement": "Food Consumption, Day 12", "setting": "day 12 of SC dosing, individual animals", "result": 100}, {"measurement": "Food Consumption, Day 13", "setting": "day 13 of SC dosing, individual animals", "result": "50 and 100"}, {"measurement": "Food Consumption, Day 14", "setting": "day 14 of SC dosing, individual animals", "result": "75 and 100"}, {"measurement": "Food Consumption, Day −1", "setting": "day −1 (before dosing), individual animals", "result": 100}, {"measurement": "Food Consumption, Day −2", "setting": "day −2 (before dosing), individual animals", "result": "75 and 100"}, {"measurement": "Food Consumption, Day −3", "setting": "day −3 (before dosing), individual animals", "result": 100}, {"measurement": "Food Consumption, Day −4", "setting": "day −4 (before dosing), individual animals", "result": 100}, {"measurement": "Food Consumption, Day −5", "setting": "day −5 (before dosing), individual animals", "result": 100}, {"measurement": "Food Consumption, Day −6", "setting": "day −6 (before dosing), individual animals", "result": 50}]}
